This data set is described as follows: solvent given as SMILES.

Our source for the emission maximum values is the Deep4Chem optical property database.

As for `CCn1c2ccccc2c2cc(C#Cc3cc(C#Cc4ccc5c(c4)c4ccccc4n5CC)nc(N4CCCCC4)n3)ccc21`, the emission maximum by setting is: (in C1CCOC1) 445 nm; (in CCOC(C)=O) 446 nm; (in CN(C)C=O) 469 nm; (in Cc1ccccc1) 438 nm; (in ClCCl) 450 nm.
`CC(C)[Si](C#Cc1cc2c3c(c1)c(=C1c4ccccc4Sc4ccccc41)c1cc(C#C[Si](C(C)C)(C(C)C)C(C)C)cc4c1N3c1c(cc(C#C[Si](C(C)C)(C(C)C)C(C)C)cc1c4=C1c3ccccc3Sc3ccccc31)c2=C1c2ccccc2Sc2ccccc21)(C(C)C)C(C)C` came in with an emission maximum (in ClCCl) of 511 nm.
For `C(=C\c1cnc2ccccc2n1)/c1ccc(N(c2ccccc2)c2ccccc2)cc1`, the emission maximum reads like this: (in C1CCOC1) 535 nm; (in CC#N) 596 nm; (in CCCCCCC) 461 nm; (in CS(C)=O) 598 nm; (in ClCCl) 565 nm.
As for `O=C([O-])c1cc2c(ccc3ccccc32)oc1=O`, the emission maximum (in O) was 428 nm.
As for `CC1(C)c2ccccc2N(c2ccc3c(c2)c2cc(N4c5ccccc5C(C)(C)c5ccccc54)ccc2c2nc(C#N)c(C#N)nc32)c2ccccc21`, the emission maximum was found to be 753.65 nm (in C1COCCO1), 572.45 nm (in CCCCCC), 678 nm (in Cc1ccccc1) and 618 nm (in O=P(c1ccccc1)(c1ccccc1)c1cccc(-c2cc(-n3c4ccccc4c4ccccc43)cc(-n3c4ccccc4c4ccccc43)c2)n1).
In the case of `CCCCCCCCn1c(=O)c2cc3c(C#Cc4ccc(N(c5ccccc5)c5ccccc5)cc4)c4cc5c(=O)n(CCCCCCCC)c(=O)c5cc4c(C#Cc4ccc(N(c5ccccc5)c5ccccc5)cc4)c3cc2c1=O`, the emission maximum (in ClC(Cl)Cl) came to 641 nm.
For the compound `COc1c2ccccc2c(OC)c2c1c1cccc(OC)c1n2C`, the emission maximum reads like this: (in C1CCCCC1) 418 nm; (in CC#N) 433 nm; (in CO) 429 nm; (in ClCCl) 431 nm.
Consider `CSc1sc(C(=O)c2ccccc2)c2nn[nH]c(=O)c12`, for which the emission maximum (in C1CCOC1) was determined as 482 nm; the emission maximum (in CC#N) is reported as 485 nm; the emission maximum (in CCO) is 489 nm; the emission maximum (in CN(C)C=O) is recorded as 492 nm; the emission maximum (in CO) was found to be 495 nm; the emission maximum (in CS(C)=O) is on record as 497 nm.
For the compound `COc1c2ccccc2c(OC)c2c1c1cc(C)ccc1n2C`, the emission maximum reads like this: (in C1CCCCC1) 421 nm; (in CC#N) 431 nm; (in CO) 426 nm; (in ClCCl) 428 nm.
In turn, `CC(=O)OC[C@H]1O[C@@H](OCC#Cc2ccc(C3=C4C(C)=CC(/C=C/c5ccc([N+](C)(C)C)cc5)=[N+]4[B-](F)(F)n4c(/C=C/c5ccc([N+](C)(C)C)cc5)cc(C)c43)cc2)[C@H](OC(C)=O)C(OC(C)=O)[C@@H]1OC(C)=O` (some centres not stated) registered an emission maximum (in CC#N) of 629 nm.
For the setting “in Cc1ccccc1”, `CCCC1=Cc2nc1ccc1[nH]c(cc1CCC)c1nc(c(OCc3ccc(C(=O)O)cc3)cc3[nH]c2cc3CCC)C(CCC)=C1` showed an emission maximum of 685 nm.
For `COc1ccc(C2=C(c3ccc(OC)cc3)C(c3ccc(OC)cc3)=[N+]3C2=C(c2ccc(OC)cc2)c2c(-c4ccc(OC)cc4)c(-c4ccc(OC)cc4)c(-c4ccc(OC)cc4)n2[B-]3(F)F)cc1`, under “in C1CCOC1”, the emission maximum came out at 640 nm.
For the compound `N#Cc1c(N2CCCCC2)cc(-c2cccc3ccccc23)c2c1C(=O)c1ccccc1-2`, the emission maximum (in C1CCOC1) is listed as 460 nm.
Take `Cc1ccc(C#Cc2ccc3nc4ccc(C#Cc5ccc(C)cc5)cn4c(=O)c3c2)cc1`: the emission maximum (in ClCCl) is listed as 480 nm.
Under “in CS(C)=O”, `COc1ccc(-c2c3nc(cc4ccc([nH]4)c(-c4ccc(OC)c(OCCCC(=O)O)c4)c4nc(cc5ccc2[nH]5)C=C4)C=C3)cc1OCCCC(=O)O` came in with an emission maximum of 639 nm.
`Cc1ccc(C2=C3C=CC(c4ccccc4)=[N+]3[B-](F)(F)n3c2ccc3-c2ccccc2)cc1`: the emission maximum is, setting by setting: (in C1CCCCC1) 585 nm; (in C1CCOC1) 586 nm; (in C1COCCO1) 587 nm; (in CCOC(C)=O) 583 nm; (in CO) 582 nm; (in Cc1ccccc1) 589 nm. Under “in ClC(Cl)Cl”, this compound gave an emission maximum of 588 nm.
`CC[n+]1c(-c2ccccc2)c2cc(NC(N)=[NH2+])ccc2c2ccc(NC(N)=[NH2+])cc21` had an emission maximum (in O) of 500 nm.
For `O=C([O-])c1c(Cl)c(Cl)c(Cl)c(Cl)c1-c1c2cc(I)c(=O)c(I)c-2oc2c(I)c([O-])c(I)cc12`, the emission maximum by setting is: (in CC(C)O) 576 nm; (in CCO) 573 nm; (in CO) 571 nm; (in O) 566 nm.
As to `Cc1cc(C)c(N(c2ccccc2)c2ccc(S(=O)(=O)c3ccc(S(=O)(=O)c4ccc(N(c5ccccc5)c5c(C)cc(C)cc5C)cc4)cc3)cc2)c(C)c1`, the emission maximum (in Cc1ccccc1) is 450 nm and the emission maximum (in c1cc(-n2c3ccccc3c3ccccc32)nc(-n2c3ccccc3c3ccccc32)c1) is recorded as 452.12 nm.
`CN1/C(=C/C=C(/C=C/C2=[N+](C)c3ccccc3C2(C)C)c2cc(F)cc(F)c2)C(C)(C)c2ccccc21`: the emission maximum is on record as 661 nm (in CCO), 655 nm (in CO), 663 nm (in CS(C)=O) and 659 nm (in O).
For the compound `COC(=O)c1ccc(NC(=O)c2ccc(N(C)C)cc2)cc1`, the emission maximum runs as follows: (in C1CCCCC1) 434 nm; (in C1CCOC1) 470 nm; (in CC#N) 516 nm; (in CCOCC) 456 nm.
Under “in CC#N”, `C[C@@]12SC(Cl)=CC1=c1nc(-c3ccccc3)[nH]c1=C1C=C(Cl)S[C@]12C` showed an emission maximum of 452 nm.
With `C(/C=C/C1=[NH+]c2cccc3cccc1c23)=c1/[nH]c2cccc3cccc1c32`, where the note is “in CO”, the emission maximum is recorded as 651 nm.
Take `CCCCOc1c(C#N)cc2cc(C#N)c(OCCCC)c3c4c(OCCCC)c(C#N)cc5cc(C#N)c(OCCCC)c(c1c23)c54`: the emission maximum (in ClCCl) was found to be 514 nm.
In the case of `CCCCCCCCCCCCCCCCOC(=O)c1ccc(N(c2ccccc2)c2ccccc2)cc1`, the emission maximum runs as follows: (in C1CCCCC1) 380 nm; (in C1CCOC1) 428 nm; (in CC#N) 480 nm; (in CCOC(C)=O) 428 nm; (in ClCCCl) 450 nm; (in c1ccccc1) 412 nm.
As to `Cc1c2c(nc3ccccc13)-c1cc3c(cc1CC2)-c1nc2ccccc2c(C)c1CC3`, the emission maximum (in ClC(Cl)Cl) is listed as 383 nm.
`CCOC(=O)c1ccc(C2CC(c3cccc4ccccc34)=NN2c2ccc(F)cc2)cc1` (configuration not stated) came in with an emission maximum (in ClCCl) of 481 nm.
For the compound `COc1ccccc1-c1nc(-c2ccccc2)c2ccccn12`, the emission maximum (in C1CCCCC1) amounted to 477 nm; the emission maximum (in CC#N) is on record as 479 nm; the emission maximum (in CO) is listed as 475 nm; the emission maximum (in ClCCl) is given as 479 nm; the emission maximum (in O) is on record as 481 nm.
On to `CCCCC(CC)COc1cc(OCC(CC)CCCC)c2c#cc3ccc4sc5ccc(c#cc6cc(c#cc7ccc8sc9ccc(c#cc1c2)cc9c8c7)c(C(CCCC)OCCC)cc6C(CCCC)OCCC)cc5c4c3` (configuration not stated), for which the emission maximum (in ClCCl) was found to be 377 nm.
Regarding `Cc1ccccc1C1=C2C=c3c(oc4ccc(C(C)(C)C)cc34)=[N+]2[B-](F)(F)n2c1cc1c3cc(C(C)(C)C)ccc3oc12`, the emission maximum is, setting by setting: (in C1CCCCC1) 602 nm; (in CCOC(C)=O) 602 nm; (in CO) 600.5 nm.
As to `CC(C)Nc1cc2oc3cc(NC(C)C)c(F)cc3c(=O)c2cc1F`, the emission maximum (in CCO) is reported as 422 nm.
With `CN(C)c1ccc(/C=C/c2nc3c4ccccc4c4ccccc4c3[nH]2)cc1`, the emission maximum by setting is: (in C1CCOC1) 463 nm; (in C1COCCO1) 436 nm; (in CC1CCCCC1) 430 nm; (in CC#N) 476 nm; (in CCOC(C)=O) 460 nm; (in CCOCC) 448 nm. Moreover, the emission maximum runs as follows: (in CN(C)C=O) 478 nm; (in COC(C)=O) 471 nm; (in CS(C)=O) 480 nm; (in Cc1ccccc1) 436 nm; (in ClC(Cl)Cl) 467 nm.
Consider `CCc1ccc(/C=C/c2ccc(-c3nnc(-c4ccc(-c5cc6ccccc6s5)cc4)o3)cc2)cc1`, for which the emission maximum runs as follows: (in CC#N) 421 nm; (in CC(C)=O) 420 nm; (in CCCCCCCC) 389 nm; (in CCCCCCCCCCO) 420 nm; (in CCCCCCCCO) 421 nm; (in CCCCCO) 421 nm. The same compound came in with an emission maximum (in CCCO) of 422 nm, an emission maximum (in CN(C)C=O) of 429 nm, an emission maximum (in CO) of 426 nm and an emission maximum (in CS(C)=O) of 433 nm.
On to `c1ccc(-c2nc(-c3ccccc3)n3ccccc23)cc1`, for which the emission maximum is, setting by setting: (in C1CCCCC1) 445 nm; (in CC#N) 478 nm; (in CO) 477 nm; (in ClC(Cl)Cl) 454 nm; (in ClCCl) 484 nm; (in O) 479 nm.
In the case of `N#Cc1c(N2CCCCC2)cc(-c2ccc(Br)cc2)c2c1CCc1ccccc1-2`, the emission maximum (in C1CCOC1) was determined as 468 nm.
Compound `O=P(c1ccccc1)(c1ccccc1)n1c2ccccc2c2cc(-n3c4ccccc4c4cc(-n5c6ccccc6c6ccccc65)ccc43)ccc21` yielded an emission maximum (in C1CCOC1) of 373 nm, an emission maximum (in CC(C)=O) of 374 nm, an emission maximum (in Cc1ccccc1) of 373 nm and an emission maximum (in ClCCl) of 381 nm.
